Test results: patent US5488051A, “Substituted 5,6-dihydro-5-oxo-1,4-dithiino-(2,3-d)-pyridazine-2,3-dicarbonitriles, compositions containing them and their use as antimicrobials” (The Dow Chemical Company, priority 1994, dated 1996)
Where two headings read alike, the source gives them in different places.

Legend:
[1] = test system: Pseudomonas aeruginosa (Pa); assay: MIC for Pseudomonas aeruginosa, nutrient agar; assay type: cell-based, Pseudomonas aeruginosa ATCC 10145; conditions: 48 hours, read-out: Minimum Inhibitory Concentration (MIC), Pa
Procedure: (§1) The minimum inhibitory concentration (MIC) for the compounds listed in Table I is determined for 9 bacteria, using nutrient agar; and 7 yeast and fungi, using malt yeast agar. A one percent solution of the test compound is prepared in a mixture of acetone and water.
(§2) Nutrient agar is prepared at pH 6.8, representing a neutral medium, and at pH 8.2, representing an alkaline medium. The nutrient agars are prepared by adding 23 g of nutrient agar to one-liter of deionized water. In addition, the alkaline medium is prepared by adjusting a 0.04M solution of N-[tris-(hydroxymethyl)methyl]-glycine buffered deionized water with concentrated sodium hydroxide to a pH of 8.5.
(§3) The test tubes containing the malt yeast agar and the nutrient agar are cooled in a water bath until the temperature of the agar is 48° C. Then, an appropriate amount of the one percent solution of the test compound is added (except in the controls where no compound is added) to the respective test tubes so that the final concentrations are zero (0), 1.0, 2.5, 5, 10, 25, 50, 100, 250 and 500 parts per million of the test compound in each of the respective type of agar. The contents of each of the test tubes are then transferred to separate petri plates. After drying for 24 hours, the petri plates containing nutrient agar are inoculated with bacteria and those containing malt yeast agar are inoculated with yeast and fungi.
(§4) The inoculation with bacteria is accomplished by using the following procedure. Twenty-four hour-cultures of each of the bacteria are prepared by incubating the respective bacteria in tubes containing nutrient broth for 24 hours at 30° C. in a shaker. Dilutions of each of the 24 hour-cultures are made so that nine separate suspensions (one for each of the nine test bacteria) are made, each containing 10^8 colony forming units (CFU) per mL of suspension of a particular bacteria. Aliquots of 0.3 mL of each of the bacterial suspensions are used to fill the individual wells of Steer's Replicator. For each microbial suspension, 0.3 mL was used to fill three wells (i.e., three wells of 0.3 mL each) so that for the nine different bacteria, 27 wells are filled. The Steer's Replicator is then used to inoculate both the neutral and alkaline pH nutrient agar petri plates.
(§5) The inoculated petri plates are incubated at 30° C. for 48 hours and then read to determine if the test compound which is incorporated into the agar prevented growth of the respective bacteria.
(§6) Table II list the bacteria, yeast and fungi used in the MIC test described above along with their respective American Type Culture Collection (ATCC) identification numbers.

[2] = test system: Staphylococcus aureus (Sa); assay: MIC for Staphylococcus aureus, nutrient agar; assay type: cell-based, Staphylococcus aureus ATCC 6538
Procedure: as §1, §2, §3, §4, §5, §6

Trichoderma viride (Tv) = assay: MIC for Trichoderma viride, malt yeast agar; assay type: cell-based, Trichoderma viride ATCC 8678; conditions: read-out: Minimum Inhibitory Concentration (MIC), Tv
Procedure: as §1
(§7) Malt yeast agar is prepared by adding 3 g yeast extract and 45 g malt agar per liter of deionized water. The specific agar is dispensed in 30 mL aliquots into 25×200 mm test tubes, capped and autoclaved for 15 minutes at 115° C.
as §3
(§8) The inoculation with the yeast and fungi is accomplished as follows. Cultures of yeast and fungi are incubated for seven days on malt yeast agar at 30° C. These cultures are used to prepare suspensions by the following procedure. A suspension of each organism is prepared by adding 10 mL of sterile saline and 10 microliters of octylphenoxy polyethoxy ethanol to the agar slant of yeast or fungi. The sterile saline/octylphenoxy polyethoxy ethanol solution is then agitated with a sterile swab to suspend the microorganism grown on the slant. Each resulting suspension is diluted into sterile saline (1 part suspension: 9 parts sterile saline). Aliquots of these dilutions are placed in individual wells of Steer's Replicator and petri plates inoculated as previously described. The petri plates are incubated at 30° C. and read after 48 hours for yeast and 72 hours for fungi.
as §6

Candida albicans (Ca) = assay: MIC for Candida albicans, malt yeast agar; assay type: cell-based, Candida albicans ATCC 10231; conditions: read-out: Minimum Inhibitory Concentration (MIC), Ca
Procedure: as §1, §7, §3, §8, §6

Aspergillus niger (An) = assay: MIC for Aspergillus niger, malt yeast agar; assay type: cell-based, Aspergillus niger ATCC 16404; conditions: read-out: Minimum Inhibitory Concentration (MIC), An
Procedure: as §1, §7, §3, §8, §6

Saccharomyces cerevisiae = assay: MIC for Saccharomyces cerevisiae, malt yeast agar; assay type: cell-based, Saccharomyces cerevisiae ATCC 4105; conditions: read-out: Minimum Inhibitory Concentration (MIC), Sc
Procedure: as §1, §7, §3, §8, §6

[3] = test system: Klebsiella pneumonias (Kp); assay: MIC for Klebsiella pneumonias, nutrient agar; assay type: cell-based, Klebsiella pneumonias ATCC 8308
Procedure: as §1, §2, §3, §4, §5, §6

Bacillus subtilis (Bs) = assay: MIC for Bacillus subtilis, nutrient agar; assay type: cell-based, Bacillus subtilis ATCC 8473
Procedure: as §1, §2, §3, §4, §5, §6

Fusarium oxysporum (Fo) = assay: MIC for Fusarium oxysporum, malt yeast agar; assay type: cell-based, Fusarium oxysporum ATCC 48112; conditions: read-out: Minimum Inhibitory Concentration (MIC), Fo
Procedure: as §1, §7, §3, §8, §6

[4] = test system: Penicillium chrysogenum (Pc); assay: MIC for Penicillium chrysogenum, malt yeast agar; assay type: cell-based, Penicillium chrysogenum ATCC 9480; conditions: read-out: Minimum Inhibitory Concentration (MIC), PC
Procedure: as §1, §7, §3, §8, §6

[5] = test system: Enterobacter aerogenes (Ea); assay: MIC for Enterobacter aerogenes, nutrient agar; assay type: cell-based, Enterobacter aerogenes ATCC 13048; conditions: Klebsiella aerogenes
Procedure: as §1, §2, §3, §4, §5, §6

Salmonella choleraesuis = assay: MIC for Salmonella choleraesuis, nutrient agar; assay type: cell-based, Salmonella choleraesuis ATCC 10708; conditions: Salmonella enterica
Procedure: as §1, §2, §3, §4, §5, §6

Escherichia coli (Ec) = assay: MIC for Escherichia coli, nutrient agar; assay type: cell-based, Escherichia coli ATCC 11229
Procedure: as §1, §2, §3, §4, §5, §6

[6] = test system: Aureobasidium pullulan (Ap); assay: MIC for Aureobasidium pullulan, malt yeast agar; assay type: cell-based, Aureobasidium pullulan ATCC 16622; conditions: read-out: Minimum Inhibitory Concentration (MIC), Ap
Procedure: as §1, §7, §3, §8, §6

Proteus vulgaris (Pv) = assay: MIC for Proteus vulgaris, nutrient agar; assay type: cell-based, Proteus vulgaris ATCC 881
Procedure: as §1, §2, §3, §4, §5, §6

[7] = test system: Pseudomonas aeruginosa (PRD-10); assay: MIC for Pseudomonas aeruginosa PRD-10, nutrient agar; assay type: cell-based, Pseudomonas aeruginosa ATCC 15442
Procedure: as §1, §2, §3, §4, §5, §6

[8] = pH 6.8, nutrient agar, 30° C., 48 hours, read-out: Minimum Inhibitory Concentration (MIC), Sa
[9] = pH 8.2, nutrient agar, 30° C., 48 hours, read-out: Minimum Inhibitory Concentration (MIC), Sa
[10] = malt yeast agar, 30° C., 72 hours for fungi
[11] = malt yeast agar, 30° C., 48 hours for yeast
[12] = pH 6.8, nutrient agar, 30° C., 48 hours, read-out: Minimum Inhibitory Concentration (MIC), Kp
[13] = pH 8.2, nutrient agar, 30° C., 48 hours, read-out: Minimum Inhibitory Concentration (MIC), Kp
[14] = pH 6.8, nutrient agar, 30° C., 48 hours, read-out: Minimum Inhibitory Concentration (MIC), Bs
[15] = pH 8.2, nutrient agar, 30° C., 48 hours, read-out: Minimum Inhibitory Concentration (MIC), Bs
[16] = pH 6.8, nutrient agar, 30° C., 48 hours, read-out: Minimum Inhibitory Concentration (MIC), Ea
[17] = pH 8.2, nutrient agar, 30° C., 48 hours, read-out: Minimum Inhibitory Concentration (MIC), Ea
[18] = pH 6.8, nutrient agar, 30° C., 48 hours, read-out: Minimum Inhibitory Concentration (MIC), SC
[19] = pH 8.2, nutrient agar, 30° C., 48 hours, read-out: Minimum Inhibitory Concentration (MIC), SC
[20] = pH 6.8, nutrient agar, 30° C., 48 hours, read-out: Minimum Inhibitory Concentration (MIC), Ec
[21] = pH 8.2, nutrient agar, 30° C., 48 hours, read-out: Minimum Inhibitory Concentration (MIC), Ec
[22] = malt yeast agar, 30° C., 48 hours for yeast and 72 hours for fungi
[23] = pH 6.8, nutrient agar, 30° C., 48 hours, read-out: Minimum Inhibitory Concentration (MIC), Pv
[24] = pH 8.2, nutrient agar, 30° C., 48 hours, read-out: Minimum Inhibitory Concentration (MIC), Pv
[25] = pH 6.8, nutrient agar, 30° C., 48 hours, read-out: Minimum Inhibitory Concentration (MIC), PRD
[26] = pH 8.2, nutrient agar, 30° C., 48 hours, read-out: Minimum Inhibitory Concentration (MIC), PRD

Measured: MIC

ClC=CC[N+]12CN3CN(CN(C3)C1)C2.[Cl-] [STANDARD I, 1-(3-chloroallyl)-3,5,7-triaza-1-azoniaadamantane chloride, reference compound]
100 µg/mL: [1]; pH 6.8, 30° C. | [2]; 48 h, pH 6.8, read-out: Minimum Inhibitory Concentration (MIC), Sa | [5]; 48 h, pH 6.8, read-out: Minimum Inhibitory Concentration (MIC), Ea | Salmonella choleraesuis; 48 h, pH 8.2, read-out: Minimum Inhibitory Concentration (MIC), SC | Escherichia coli (Ec); 48 h, pH 6.8, read-out: Minimum Inhibitory Concentration (MIC), Ec | [7]; 48 h, pH 6.8, read-out: Minimum Inhibitory Concentration (MIC), PRD
> 500 µg/mL: [1]; pH 8.2, 30° C. | Trichoderma viride (Tv); 72 h | Candida albicans (Ca); 48 h | Aspergillus niger (An); 72 h | Fusarium oxysporum (Fo); 72 h | [4]; 72 h | [6]
50 µg/mL: [3]; 48 h, pH 6.8, read-out: Minimum Inhibitory Concentration (MIC), Kp | Bacillus subtilis (Bs); 48 h, pH 6.8, read-out: Minimum Inhibitory Concentration (MIC), Bs | Salmonella choleraesuis; 48 h, pH 6.8, read-out: Minimum Inhibitory Concentration (MIC), SC | Proteus vulgaris (Pv); 48 h, pH 6.8, read-out: Minimum Inhibitory Concentration (MIC), Pv
250 µg/mL: [2]; 48 h, pH 8.2, read-out: Minimum Inhibitory Concentration (MIC), Sa | [3]; 48 h, pH 8.2, read-out: Minimum Inhibitory Concentration (MIC), Kp | Bacillus subtilis (Bs); 48 h, pH 8.2, read-out: Minimum Inhibitory Concentration (MIC), Bs | [5]; 48 h, pH 8.2, read-out: Minimum Inhibitory Concentration (MIC), Ea | Escherichia coli (Ec); 48 h, pH 8.2, read-out: Minimum Inhibitory Concentration (MIC), Ec | Proteus vulgaris (Pv); 48 h, pH 8.2, read-out: Minimum Inhibitory Concentration (MIC), Pv
500 µg/mL: Saccharomyces cerevisiae; 48 h | [7]; 48 h, pH 8.2, read-out: Minimum Inhibitory Concentration (MIC), PRD

N#CC1=C(C#N)Sc2c(cnn(-c3cccc(Cl)c3)c2=O)S1 [E, 5,6-dihydro-6-(3-chlorophenyl)-5-oxo-1,4-dithiino-(2,3-d)-pyridazine-2,3-dicarbonitrile]
50 µg/mL: Aspergillus niger (An); [10] | Fusarium oxysporum (Fo); [10]
25 µg/mL: Candida albicans (Ca); [11] | Saccharomyces cerevisiae; [11] | Bacillus subtilis (Bs); [14] | [4]; [10] | [6]; [22]
250 µg/mL: [2]; [8] | Bacillus subtilis (Bs); [15]
100 µg/mL: Trichoderma viride (Tv); [10]
> 500 µg/mL: [1]; pH 6.8, 30° C. | [1]; pH 8.2, 30° C. | [2]; [9] | [3]; [12] | [3]; [13] | [5]; [16] | [5]; [17] | Salmonella choleraesuis; [18] | Salmonella choleraesuis; [19] | Escherichia coli (Ec); [21] | Proteus vulgaris (Pv); [24] | [7]; [25] | [7]; [26]
500 µg/mL: Escherichia coli (Ec); [20] | Proteus vulgaris (Pv); [23]

N#CC1=C(C#N)Sc2c(cnn(-c3ccc(Cl)cc3Cl)c2=O)S1 [G, 5,6-dihydro-6-(2,4-dichlorophenyl)-5-oxo-1,4-dithiino-(2,3-d)-pyridazine-2,3-dicarbonitrile]
250 µg/mL: [2]; [9] | Trichoderma viride (Tv); [10] | [3]; [12] | Bacillus subtilis (Bs); [15] | Escherichia coli (Ec); [20]
> 500 µg/mL: [1]; pH 8.2, 30° C. | [5]; [16] | [5]; [17] | Salmonella choleraesuis; [19] | Escherichia coli (Ec); [21] | Proteus vulgaris (Pv); [24] | [7]; [26]
25 µg/mL: Bacillus subtilis (Bs); [14]
50 µg/mL: Candida albicans (Ca); [11] | Saccharomyces cerevisiae; [11] | [6]; [22]
100 µg/mL: [2]; [8] | Aspergillus niger (An); [10] | Fusarium oxysporum (Fo); [10] | [4]; [10]
500 µg/mL: [3]; [13] | Salmonella choleraesuis; [18] | Proteus vulgaris (Pv); [23] | [7]; [25]
